Reference: PubChem BioAssay AID1963958 (Molecular Pharmacology Branch, DTP, NCI, 2024)

Test system: MDA-MB-231 multicell spheroids, viability
Assay: Anticancer human tumor MDA-MB-231 cell line growth inhibition [PI3K];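 note: spheroids exposed to agents for seven days before reading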;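 for viability, T/C: percent of vehicle control luminescence with DMSO treated spheroids as 100%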
Conditions: for IC50: curve of first compound; for viability, T/C: stronger effect = lower value; active = viability on the fitted dose curve at most 10% of control; inactive = the rest
Outline: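 Targeted small molecules plus PI3K inhibitors, half-log dose series from Cmax (default top 10 microM), were applied to heterotypic spheroids of cancer cells with HUVEC and MSCs. Viability indicated growth inhibition.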

[1] = second compound 0.0316 µM, first compound 0.0316 µM
[2] = second compound 0.0316 µM, first compound 0.1 µM
[3] = second compound 0.0316 µM, first compound 0.316 µM
[4] = second compound 0.0316 µM, first compound 1 µM
[5] = second compound 0.0316 µM, first compound 3.16 µM
[6] = second compound 0.0316 µM, first compound 10 µM
[7] = second compound 0.1 µM, first compound 0.0316 µM
[8] = second compound 0.1 µM, first compound 0.1 µM
[9] = second compound 0.1 µM, first compound 0.316 µM
[10] = second compound 0.1 µM, first compound 1 µM
[11] = second compound 0.1 µM, first compound 3.16 µM
[12] = second compound 0.1 µM, first compound 10 µM
[13] = second compound 0.316 µM, first compound 0.0316 µM
[14] = second compound 0.316 µM, first compound 0.1 µM
[15] = second compound 0.316 µM, first compound 0.316 µM
[16] = second compound 0.316 µM, first compound 1 µM
[17] = second compound 0.316 µM, first compound 3.16 µM
[18] = second compound 0.316 µM, first compound 10 µM
[19] = second compound 1 µM, first compound 0.0316 µM
[20] = second compound 1 µM, first compound 0.1 µM
[21] = second compound 1 µM, first compound 0.316 µM
[22] = second compound 1 µM, first compound 1 µM
[23] = second compound 1 µM, first compound 3.16 µM
[24] = second compound 1 µM, first compound 10 µM
[25] = second compound 3.16 µM, first compound 0.0316 µM
[26] = second compound 3.16 µM, first compound 0.1 µM
[27] = second compound 3.16 µM, first compound 0.316 µM
[28] = second compound 3.16 µM, first compound 1 µM
[29] = second compound 3.16 µM, first compound 3.16 µM
[30] = second compound 3.16 µM, first compound 10 µM
[31] = second compound 10 µM, first compound 0.0316 µM
[32] = second compound 10 µM, first compound 0.1 µM
[33] = second compound 10 µM, first compound 0.316 µM
[34] = second compound 10 µM, first compound 1 µM
[35] = second compound 10 µM, first compound 3.16 µM
[36] = second compound 10 µM, first compound 10 µM

C#Cc1c(F)ccc2cc(O)cc(-c3ncc4c(N5CC6CCC(C5)N6)nc(OCC56CCCN5CC(F)C6)nc4c3F)c12 (stereo not drawn) + Cc1nc(NC(=O)N2CCCC2C(N)=O)sc1-c1ccnc(C(C)(C)C(F)(F)F)c1
5.67 µM: IC50 (second compound 0.316 µM)
inactive: viability, T/C [1] 106% | viability, T/C [2] 96% | viability, T/C [3] 101% | viability, T/C [4] 68.3% | viability, T/C [5] 75.6% | viability, T/C [6] 54.9% | viability, T/C [7] 88.8% | viability, T/C [8] 87.6% | viability, T/C [9] 85.4% | viability, T/C [10] 73% | viability, T/C [11] 65.5% | viability, T/C [12] 45.2% | viability, T/C [13] 77.7% | viability, T/C [14] 82.8% | viability, T/C [15] 69.4% | viability, T/C [16] 60.4% | viability, T/C [17] 62% | viability, T/C [18] 42% | viability, T/C [19] 74.1% | viability, T/C [20] 69.8% | viability, T/C [21] 67.3% | viability, T/C [22] 55.2% | viability, T/C [23] 43.3% | viability, T/C [24] 33.3% | viability, T/C [25] 69.6% | viability, T/C [26] 65.5% | viability, T/C [27] 53.4% | viability, T/C [28] 49.6% | viability, T/C [29] 42% | viability, T/C [30] 28% | viability, T/C [31] 64.2% | viability, T/C [32] 58.4% | viability, T/C [33] 45.3% | viability, T/C [34] 36.9% | viability, T/C [35] 32% | viability, T/C [36] 18.1%
0.23 µM: IC50 (second compound 10 µM)
> 10 µM: IC50 (second compound 0.0316 µM)
0.847 µM: IC50 (second compound 3.16 µM)
7.62 µM: IC50 (second compound 0.1 µM)
1.7 µM: IC50 (second compound 1 µM)

C=CC(=O)N1CCN(c2nc(=O)n(-c3c(C)ccnc3C(C)C)c3nc(-c4c(O)cccc4F)c(F)cc23)C(C)C1 (stereo not drawn) + Cc1nc(NC(=O)N2CCCC2C(N)=O)sc1-c1ccnc(C(C)(C)C(F)(F)F)c1
3.95 µM: IC50 (second compound 10 µM)
> 10 µM: IC50 (second compound 0.0316 µM) | IC50 (second compound 0.1 µM) | IC50 (second compound 0.316 µM) | IC50 (second compound 1 µM)
inactive: viability, T/C [1] 97.5% | viability, T/C [2] 98.3% | viability, T/C [3] 96.4% | viability, T/C [4] 103% | viability, T/C [5] 120% | viability, T/C [6] 102% | viability, T/C [7] 86.5% | viability, T/C [8] 85.4% | viability, T/C [9] 93.2% | viability, T/C [10] 108% | viability, T/C [11] 109% | viability, T/C [12] 88.4% | viability, T/C [13] 74.8% | viability, T/C [14] 79.1% | viability, T/C [15] 79% | viability, T/C [16] 82.8% | viability, T/C [17] 87.9% | viability, T/C [18] 66.9% | viability, T/C [19] 63% | viability, T/C [20] 66.5% | viability, T/C [21] 68.2% | viability, T/C [22] 71.1% | viability, T/C [23] 62.1% | viability, T/C [24] 48.5% | viability, T/C [25] 66.3% | viability, T/C [26] 66.8% | viability, T/C [27] 68% | viability, T/C [28] 65.4% | viability, T/C [29] 60.1% | viability, T/C [30] 42.1% | viability, T/C [31] 67.6% | viability, T/C [32] 60.3% | viability, T/C [33] 60% | viability, T/C [34] 58.5% | viability, T/C [35] 54.7% | viability, T/C [36] 36.7%
6.06 µM: IC50 (second compound 3.16 µM)

CC(Cn1ccc(-c2ccc(C#N)c(Cl)c2)n1)NC(=O)c1cc(C(C)O)[nH]n1 (stereo not drawn) + Cc1nc(NC(=O)N2CCCC2C(N)=O)sc1-c1ccnc(C(C)(C)C(F)(F)F)c1
inactive: viability, T/C [1] 92.9% | viability, T/C [2] 88.3% | viability, T/C [3] 98.9% | viability, T/C [4] 93.5% | viability, T/C [5] 86.4% | viability, T/C [6] 83.3% | viability, T/C [7] 86.8% | viability, T/C [8] 78.8% | viability, T/C [9] 87% | viability, T/C [10] 89.3% | viability, T/C [11] 86.2% | viability, T/C [12] 74.5% | viability, T/C [13] 73.2% | viability, T/C [14] 71.6% | viability, T/C [15] 77.4% | viability, T/C [16] 72.5% | viability, T/C [17] 68.2% | viability, T/C [18] 64.8% | viability, T/C [19] 68.6% | viability, T/C [20] 70.9% | viability, T/C [21] 67.1% | viability, T/C [22] 72.3% | viability, T/C [23] 66.6% | viability, T/C [24] 59.8% | viability, T/C [25] 68.4% | viability, T/C [26] 67.3% | viability, T/C [27] 68.7% | viability, T/C [28] 64.6% | viability, T/C [29] 61.9% | viability, T/C [30] 56.6% | viability, T/C [31] 68.3% | viability, T/C [32] 58% | viability, T/C [33] 60.3% | viability, T/C [34] 64.2% | viability, T/C [35] 62.8% | viability, T/C [36] 49.8%
> 10 µM: IC50 (second compound 0.0316 µM) | IC50 (second compound 0.1 µM) | IC50 (second compound 0.316 µM) | IC50 (second compound 1 µM) | IC50 (second compound 3.16 µM) | IC50 (second compound 10 µM)

CC1(C)CCC(Nc2ncc(C(F)(F)F)c(-c3c[nH]c4c(P(C)(C)=O)c(C#N)ccc34)n2)CN1 (stereo not drawn) + Cc1nc(NC(=O)N2CCCC2C(N)=O)sc1-c1ccnc(C(C)(C)C(F)(F)F)c1
active: viability, T/C [6] 4.85% | viability, T/C [12] 5.6% | viability, T/C [18] 3.95% | viability, T/C [24] 3.6% | viability, T/C [30] 4.49% | viability, T/C [36] 3.35%
0.0316 µM: IC50 (second compound 0.0316 µM) | IC50 (second compound 0.1 µM)
< 0.0316 µM: IC50 (second compound 0.316 µM) | IC50 (second compound 1 µM) | IC50 (second compound 3.16 µM) | IC50 (second compound 10 µM)
inactive: viability, T/C [1] 47.6% | viability, T/C [2] 42.8% | viability, T/C [3] 47.6% | viability, T/C [4] 51.2% | viability, T/C [5] 54.6% | viability, T/C [7] 48.5% | viability, T/C [8] 44.1% | viability, T/C [9] 45.2% | viability, T/C [10] 49.9% | viability, T/C [11] 52.5% | viability, T/C [13] 44.5% | viability, T/C [14] 42.7% | viability, T/C [15] 44.7% | viability, T/C [16] 45.5% | viability, T/C [17] 47.5% | viability, T/C [19] 43.4% | viability, T/C [20] 43.8% | viability, T/C [21] 43.9% | viability, T/C [22] 45.4% | viability, T/C [23] 44.8% | viability, T/C [25] 43.5% | viability, T/C [26] 44% | viability, T/C [27] 42.5% | viability, T/C [28] 42.6% | viability, T/C [29] 40.4% | viability, T/C [31] 41.7% | viability, T/C [32] 43.4% | viability, T/C [33] 40.5% | viability, T/C [34] 40.3% | viability, T/C [35] 38.1%
